Marks after values point to notes of the source that are not given here. Blank lines part the entries; values can stand above or below the molecule they belong to.
Tests used:
SCD = molecular target: T1, SCD (Mus musculus, UniProt P13516); experiment: Mouse SCD IC50 determination for compounds active in the HTS assay; type: biochemical
T1 sequence (P13516 1-355): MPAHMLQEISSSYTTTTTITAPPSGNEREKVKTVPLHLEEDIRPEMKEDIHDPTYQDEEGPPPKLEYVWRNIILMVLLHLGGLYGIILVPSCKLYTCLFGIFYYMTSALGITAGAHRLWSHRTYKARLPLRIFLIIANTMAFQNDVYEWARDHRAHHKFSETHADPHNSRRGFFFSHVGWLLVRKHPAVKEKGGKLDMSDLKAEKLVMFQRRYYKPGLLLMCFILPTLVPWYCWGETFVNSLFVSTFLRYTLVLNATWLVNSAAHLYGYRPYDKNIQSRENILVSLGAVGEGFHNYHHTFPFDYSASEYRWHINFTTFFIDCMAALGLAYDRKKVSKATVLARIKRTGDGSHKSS
Method: The compounds are analyzed with an HTS microsomal assay. The activities are defined in terms of % SCD enzyme activity remaining at the selected concentration (e.g., 10 μM) of the test compounds.

[1] = molecular target: T2, stearoyl-CoA desaturase (SCD) (Mus musculus, UniProt P13516); experiment: HTS microsomal assay of stearoyl-CoA desaturase inhibition using mouse liver microsomes; type: biochemical; conditions: % SCD enzyme activity remaining at 10 μM test compound
T2 construct: Reactions are started by adding 2 mg of microsomal protein; from tissue; host or cells: liver microsomes of male ICR mice on a high-carbohydrate, low fat diet
T2 sequence (P13516 1-355): T1 sequence (P13516 1-355)
Method: The absence of mitochondrial contamination is enzymatically assessed.
The compounds are analyzed with an HTS microsomal assay.

HEPG2 = HEPG2 IC50; type: cell-based; conditions: Homo sapiens
sebaceous glands = experiment: Effect of topically administered LCF369 on the sebaceous glands of NMRI mice (histomorphometry); type: in vivo, female Crl:NMRI mice; conditions: for atrophogenic effect (recovery): 1% LCF369 7-day treatment
Method: LCF369 is prepared either in a solution of ethanol/propylene glycol (3/7, v/v) or in topical formulations at 1.0, 0.5 or 0.1% for testing in female Crl:NMRI mice. In general, shaved application sites of approximately 2.5 cm^2 on the back of mice are treated twice daily (once on weekends or at study termination) with 50 μl of the LCF369 preparations. To prevent the animals from potential oral uptake of the epicutaneously applied compounds, they are fitted with ruffs and housed individually. After the last application, the animals are euthanised; the treated sites dissected and prepared for histological sections. Hematoxilin/eosin (HE)-stained 3 μm-thick sections are prepared from formalin-fixed, paraffin-embedded tissue. From each animal, one HE-stained section per site is histomorphometrically examined. The entire sections of approximately 10 mm length are evaluated microscopically (200×) for sebaceous glands. The mean size and mean number (per mm^2 dermis) of sectioned alveolar units of the sebaceous glands are determined in a coded fashion with an image analyzer (Axiovision, Zeiss). For statistical analysis, morphometric data are analyzed with a T-test or Mann-Whitney rank sum test. Frozen tissue sections (5 μm) are used for oil red O (lipid) staining.
Groups of 5 mice are treated with 50 μl of 1% or 0.1% LCF369 twice daily (except on weekends, when the animals are treated once daily and on study termination) for 8 days (i.e. 14 applications in total). Four control animals are treated similarly with the vehicle alone. In life, the animals are observed for clinical signs and macroscopic changes of the application sites. One day after the last application, an evaluation is performed. In animals treated with 1.0% LCF369, untreated skin samples distant from the treated sites are also collected in order to assess systemic activity due to percutaneous absorption of LCF369.
Groups of 4 mice are treated with 1.0% LCF369 twice daily for 2, 4, 6 and 8 days (i.e. up to 16 applications). Control groups remain untreated or are treated with the vehicle alone twice daily for 8 days.
LCF369 is tested at 1.0%, 0.5% and 0.1%, groups of 6 mice are treated twice daily for 7 consecutive days. Evaluation is performed on the day following the 14th application.
A 7-day b.i.d. (twice daily) treatment schedule (except on week ends when the animals were treated once daily) with 1.0% LCF369 is applied to groups of 7 mice which are evaluated on days 8 (one day after the 14th application), 24 and 41. For comparison, skin sections from animals treated with vehicle are examined on day 8 and skin samples from untreated animals of the same delivery were examined in parallel on days 8 and 41.
Three different formulations containing 0.5% LCF369 are tested: i) emulsion gel with the penetration enhancer SEPA-9™ (batch 92.66.01-ra), ii) emulsion gel without a penetration enhancer (batch 9450-05-Ra), and iii) a formulation containing particulate compound (“follicular targeting formulation”). They are evaluated after 9 or 13 applications.

[2] = Solubility in co-solvents; type: physicochemical; conditions: compared with other co-solvents
[3] = 0.1% LCF369 topical, 8 days (14 applications), treated sites (locally), day 9, mean (SD), 5 animals
[4] = 0.5% LCF369 emulsion gel containing SEPA-9, 9 applications, mean (SD), 3 animals
[5] = 0.5% LCF369 emulsion gel containing SEPA-9, 13 applications, mean (SD), 3 animals
[6] = 0.5% LCF369 twice daily 7 days, vs vehicle-treated controls
[7] = 1.0% LCF369 topical, 8 days (14 applications), treated sites (locally), day 9, mean (SD), 5 animals
[8] = 1.0% LCF369 topical, 8 days, sites distant from the treated sites (distantly), day 9, mean (SD), 5 animals
[9] = 1% LCF369 twice daily 7 days, vs vehicle-treated controls
[10] = 1.0% LCF369 twice daily for 8 days as printed, vs vehicle, time point of this value not stated
[11] = 1.0% LCF369 twice daily, 2 days of treatment, one day after last application, 4 animals
[12] = 1.0% LCF369 twice daily, 4 days of treatment
[13] = 1.0% LCF369 twice daily, 6 days of treatment
[14] = 1.0% LCF369 twice daily, 8 days of treatment
[15] = 1.0% LCF369 twice daily, after 4 days, vs vehicle
[16] = 1.0% LCF369 twice daily, after 6 days, vs vehicle
[17] = 1.0% LCF369 twice daily, after 8 days, vs vehicle
[18] = LCF 1%, 7-day b.i.d. treatment, evaluation day 8 (one day after last application), 7 animals
[19] = LCF 1%, 7-day treatment, evaluation day 24 (17 days after last application)
[20] = LCF 1%, 7-day treatment, evaluation day 41 (34 days after last application)
[21] = LCF369 0.1% (w/v) twice daily for 7 days
[22] = LCF369 0.5% (w/v) twice daily for 7 days
[23] = LCF369 1.0% (w/v) twice daily for 7 days, one day after last application, 6 animals
[24] = LCF369-treated vs vehicle-treated skin
[25] = one day after the 7 days-treatment period with 1% LCF369

- melting point: 106 to 108 °C
- IC50 (SCD): 90 nM
- Mouse microsome SCD activity % remaining @ 10 μM [1]: 12%
- IC50 (HEPG2): 40 nM
Compound: O=C(NCCC1CC1)c1ccc(N2CCN(Cc3ccccc3C(F)(F)F)CC2)nn1 [6-[4-(2-TRIFLUOROMETHYLBENZYL)PIPERAZIN-1-YL]PYRIDAZINE-3-CARBOXYLIC ACID (2-CYCLOPROPYLETHYL)AMIDE]

- solubility in benzyl alcohol [2]: surprisingly good solubility
Compound: O=C(NCCC1CC1)c1ccc(N2CCN(C(=O)c3cc(F)ccc3C(F)(F)F)CC2)nn1 [LCF369, 6-[4-(5-Fluoro-2-trifluoromethylbenzoyl)piperazin-1-yl]pyridazine-3-carboxylic acid (2-cyclopropylethyl)amide]
- atrophogenic effect (sebaceous glands; 0.1% LCF369, 8 days): little or no atrophogenic effects
- Number of sebaceous glandular units (sebaceous glands; [3]): 34.3 (4.1) per mm^2 dermis
- Size of sebaceous glandular units (sebaceous glands; [3]): 1090 (200) μm^2
- Number of sebaceous glandular units (sebaceous glands; [4]): 10.6 (5.89)*
- Size (μm^2) of sebaceous glandular units (sebaceous glands; [4]): 745.8 (339.3)*** μm^2
- Number of sebaceous glandular units (sebaceous glands; [5]): 10.1 (3.48)*
- Size (μm^2) of sebaceous glandular units (sebaceous glands; [5]): 946.1 (134.0)*** μm^2
- hyper/parakeratosis and acanthosis in skin sections (sebaceous glands; 0.5% LCF369 formulation containing SEPA-9 vs placebo-treated (vehicle-treated) samples): hyper/parakeratosis and acanthosis is more pronounced
- effect on sebaceous glands (sebaceous glands; 0.5% LCF369 formulation containing penetration enhancer SEPA-9, 9 and 13 applications): significant atrophy of sebaceous glands
- reduction of mean size of sebaceous glands (sebaceous glands; [6]): 48%
- reduction of numbers of sebaceous glands per mm^2 dermis (sebaceous glands; [6]): 38%
- atrophogenic effect (recovery) (sebaceous glands; day 24): substantially reduced
- atrophogenic effect (recovery) (sebaceous glands; day 41): almost completely absent
- differences in numbers and sizes of sebaceous glands at sites distant from the LCF369 treatments (sebaceous glands; 1.0% LCF369, 8 days, distant sites): no significant differences
- reduction of sebaceous glands in numbers, factor (sebaceous glands; 1.0% LCF369, 8 days, vs vehicle, p<0.001): about 2.5
- reduction of sebaceous glands in sizes (sebaceous glands; 1.0% LCF369, 8 days, vs vehicle, p<0.01): about 1.9 fold
- Number of sebaceous glandular units (sebaceous glands; [7]): 13.7 (8.2) *** per mm^2 dermis
- Size of sebaceous glandular units (sebaceous glands; [7]): 571 (200) ** μm^2
- Number of sebaceous glandular units (sebaceous glands; [8]): 28.4 (6.0) per mm^2 dermis
- Size of sebaceous glandular units (sebaceous glands; [8]): 1090 (250) μm^2
- reduction of numbers of sebaceous glands (sebaceous glands; [9]): 57%
- reduction of size of sebaceous glands (sebaceous glands; [9]): 60%
- treatment period after which the effect is statistically significant (sebaceous glands; 1.0% LCF369 twice daily (8 applications)): 4 days
- progressive decrease in the numbers of sebaceous glands (sebaceous glands; [10]): 12%
- progressive decrease in the size of sebaceous glands (sebaceous glands; [10]): 19%
- Number of sebaceous glandular units (sebaceous glands; [11]): 24.8 per mm^2 dermis
- Size (μm^2) of sebaceous glandular units (sebaceous glands; [11]): 1095 μm^2
- Number of sebaceous glandular units (sebaceous glands; [12]): 18.0 per mm^2 dermis
- Size (μm^2) of sebaceous glandular units (sebaceous glands; [12]): 875 μm^2
- Number of sebaceous glandular units (sebaceous glands; [13]): 12.6 per mm^2 dermis
- Size (μm^2) of sebaceous glandular units (sebaceous glands; [13]): 613 μm^2
- Number of sebaceous glandular units (sebaceous glands; [14]): 7.0 per mm^2 dermis
- Size (μm^2) of sebaceous glandular units (sebaceous glands; [14]): 374 μm^2
- decrease of mean size of sebaceous glands (sebaceous glands; [15]): 35%
- reduction of numbers of sebaceous glands (sebaceous glands; [15]): 35%
- decrease of mean size of sebaceous glands (sebaceous glands; [16]): 35%
- reduction of numbers of sebaceous glands (sebaceous glands; [16]): 54%
- decrease of mean size of sebaceous glands (sebaceous glands; [17]): 72%
- reduction of numbers of sebaceous glands (sebaceous glands; [17]): 75%
- Number of sebaceous glandular units (sebaceous glands; [18]): 9.28
- Size (μm^2) of sebaceous glandular units (sebaceous glands; [18]): 708 μm^2
- Number of sebaceous glandular units (sebaceous glands; [19]): 17.4
- Size (μm^2) of sebaceous glandular units (sebaceous glands; [19]): 1154 μm^2
- Number of sebaceous glandular units (sebaceous glands; [20]): 21
- Size (μm^2) of sebaceous glandular units (sebaceous glands; [20]): 1456 μm^2
- Number of sebaceous glandular units (sebaceous glands; [21]): 23.8 per mm^2 dermis
- Size (μm^2) of sebaceous glandular units (sebaceous glands; [21]): 1396 μm^2
- Number of sebaceous glandular units (sebaceous glands; [22]): 14.5 per mm^2 dermis
- Size (μm^2) of sebaceous glandular units (sebaceous glands; [22]): 870 μm^2
- Number of sebaceous glandular units (sebaceous glands; [23]): 10.1 per mm^2 dermis
- Size (μm^2) of sebaceous glandular units (sebaceous glands; [23]): 675 μm^2
- histochemical (HE) staining of skin, sebaceous glands (FIG. 2B) (sebaceous glands; [24]): fewer and smaller (atrophic) sebaceous glands
- oil red O staining, lipids associated with hair shafts (FIG. 3B) (sebaceous glands; [24]): significantly reduced lipids associated with hair shafts
- minimal statistically significant effective concentration (sebaceous glands; applied twice daily (50 μL each time) for 7 days): 0.5%
- reduction of mean size of sebaceous glands (sebaceous glands; [25]): 50%
- reduction of numbers of sebaceous glands (sebaceous glands; [25]): 57%
- concentration at which efficacy is seen (sebaceous glands; topical application): ≥ 0.4%
- treatment time at which efficacy is seen (sebaceous glands; topical application): ≥ 4 days

— patent publication US20110021530A1, “PYRIDAZINE DERIVATIVES AND THEIR USE AS THERAPEUTIC AGENTS IN THE TREATMENT OF SKIN DISORDERS” (XENON PHARMACEUTICALS INC., priority 2008, published 2011)
